Measurements from US10034477B2, “Pyrido-1,3-oxazine-2,4-dione compounds with fungicidal activity” (Dow AgroSciences LLC, priority 2016, dated 2018).
Like-named read-outs stand apart in the source and are kept apart here.

Columns and labels:
Assay type in all cases: in vivo
Puccinia triticina = assay: Fungicidal activity: wheat brown rust (PUCCRT), disease control on wheat seedlings; conditions: LV activity at 121.5 g/H, wheat (variety Yuma)
Experimental: (§1) Technical grades of materials were dissolved in acetone, which were then mixed with nine volumes of water (H2O) containing 110 ppm Triton X-100. The fungicide solutions were applied onto wheat seedlings using an automated booth sprayer to run-off. All sprayed plants were allowed to air dry prior to further handling. All fungicides were evaluated using the aforementioned method for their activity vs. all target diseases, unless stated otherwise. Wheat leaf blotch and brown rust activity were also evaluated using track spray applications, in which case the fungicides were formulated as EC formulations, containing 0.1% Trycol 5941 in the spray solutions. Wheat plants (variety Yuma) were grown from seed in a greenhouse in 50% mineral soil/50% soil-less Metro mix until the first leaf was fully emerged, with 7-10 seedlings per pot. These plants were inoculated with an aqueous spore suspension of Zymoseptoria tritici either prior to or after fungicide treatments. After inoculation the plants were kept in 100% relative humidity (one day in a dark dew chamber followed by two to three days in a lighted dew chamber at 20° C.) to permit spores to germinate and infect the leaf. The plants were then transferred to a greenhouse set at 20° C. for disease to develop. When disease symptoms were fully expressed on the 1st leaves of untreated plants, infection levels were assessed on a scale of 0 to 100 percent disease severity. Percent disease control was calculated using the ratio of disease severity on treated plants relative to untreated plants. Wheat plants (variety Yuma) were grown from seed in a greenhouse in 50% mineral soil/50% soil-less Metro mix until the first leaf was fully emerged, with 7-10 seedlings per pot. These plants were inoculated with an aqueous spore suspension of Puccinia triticina either prior to or after fungicide treatments. After inoculation the plants were kept in a dark dew room at 22° C. with 100% relative humidity overnight to permit spores to germinate and infect the leaf. The plants were then transferred to a greenhouse set at 24° C. for disease to develop. Fungicide formulation, application and disease assessment followed the procedures as described in the Example A. Results of the evaluations are shown below in Table 4.

Zymoseptoria tritici = assay: Fungicidal activity: leaf blotch of wheat (SEPTTR), disease control on wheat seedlings; conditions: LV activity at 121.5 g/H, wheat (variety Yuma)
Experimental: as §1, with “plants.” for “plants. Wheat plants (variety Yuma) were grown from seed in a greenhouse in 50% mineral soil/50% soil-less Metro mix until the first leaf was fully emerged, with 7-10 seedlings per pot. These plants were inoculated with an aqueous spore suspension of Puccinia triticina either prior to or after fungicide treatments. After inoculation the plants were kept in a dark dew room at 22° C. with 100% relative humidity overnight to permit spores to germinate and infect the leaf. The plants were then transferred to a greenhouse set at 24° C. for disease to develop. Fungicide formulation, application and disease assessment followed the procedures as described in the Example A. Results of the evaluations are shown below in Table 4.”

Phakopsora pachyrhizi = assay: Fungicidal activity: Asian soybean rust (PHAKPA), disease control on soybean seedlings; conditions: soybean (variety Williams 82)
Experimental: Technical grades of materials were dissolved in acetone, which were then mixed with nine volumes of H2O containing 0.011% Tween 20. The fungicide solutions were applied onto soybean seedlings using an automated booth sprayer to run-off. All sprayed plants were allowed to air dry prior to further handling. Soybean plants (variety Williams 82) were grown in soil-less Metro mix, with one plant per pot. Two week old seedlings were used for testing. Plants were inoculated either 3 days prior to or 1 day after fungicide treatments. Plants were incubated for 24 h in a dark dew room at 22° C. and 100% relative humidity then transferred to a growth room at 23° C. for disease to develop. Disease severity was assessed on the sprayed leaves.

[1] = 24 h, 1 Day Protectant, read-out: PUCCRT 1DP disease control rating
[2] = 72 h, 3 Day Curative, read-out: PUCCRT 3DC disease control rating
[3] = 24 h, 1 Day Protectant, read-out: SEPTTR 1DP disease control rating
[4] = 72 h, 3 Day Curative, read-out: SEPTTR 3DC disease control rating
[5] = 72 h, 3 Day Curative, read-out: PHAKPA 3DC disease control rating
[6] = 24 h, 1 Day Protectant, read-out: PHAKPA 1DP disease control rating

Row | SMILES | pest or weed control at 121.5 g/ha (Puccinia triticina; [1]) [%] | pest or weed control at 121.5 g/ha (Puccinia triticina; [2]) [%] | pest or weed control at 121.5 g/ha (Zymoseptoria tritici; [3]) [%] | pest or weed control at 121.5 g/ha (Zymoseptoria tritici; [4]) [%] | pest or weed control at 25 ppm (Phakopsora pachyrhizi; [5]) [%] | pest or weed control at 25 ppm (Phakopsora pachyrhizi; [6]) [%]
1 | COc1ccnc2c(=O)n([C@@H](C)C(=O)O[C@@H](C)C(c3ccc(F)cc3F)c3ccc(F)cc3F)c(=O)oc12 [Compound 2] | > 80 | ≤ 80 | > 80 | > 80 | – | –
2 | COc1ccnc2c(=O)n([C@@H](C)C(=O)O[C@@H](C)[C@H](Oc3ccccc3)C(C)(C)C)c(=O)oc12 [Compound 4] | > 80 | > 80 | – | ≤ 80 | – | –
3 | CCC(CC)[C@@H](Oc1ccc(Cl)cc1)[C@H](C)OC(=O)[C@H](C)n1c(=O)oc2c(OC)ccnc2c1=O [Compound 5] | > 80 | ≤ 80 | > 80 | ≤ 80 | – | –
4 | CC[C@H](OC(=O)[C@H](C)n1c(=O)oc2c(OC)ccnc2c1=O)[C@@H](C)Oc1ccccc1 [Compound 6] | – | ≤ 80 | – | ≤ 80 | – | –
5 | COc1cc(F)ccc1[C@@H](c1ccc(F)c(C)c1)[C@H](C)OC(=O)[C@H](C)n1c(=O)oc2c(OC)ccnc2c1=O [Compound 7] | > 80 | – | > 80 | > 80 | – | –
6 | COc1ccc(C(c2ccc(OC)cc2OC)[C@H](C)OC(=O)[C@H](C)n2c(=O)oc3c(OC)ccnc3c2=O)c(OC)c1 [Compound 8] | ≤ 80 | ≤ 80 | > 80 | > 80 | – | –
7 | CCC(CC)[C@@H](Oc1cccc(Cl)c1)[C@H](C)OC(=O)[C@H](C)n1c(=O)oc2c(OC)ccnc2c1=O [Compound 9] | > 80 | ≤ 80 | ≤ 80 | ≤ 80 | – | –
8 | CCC[C@@H](Oc1cccc(OC)c1)[C@H](C)OC(=O)[C@H](C)n1c(=O)oc2c(OC)ccnc2c1=O [Compound 10] | > 80 | > 80 | – | > 80 | – | –
9 | COc1ccnc2c(=O)n([C@@H](C)C(=O)O[C@@H](C)[C@H](c3ccc(F)cc3)c3ccc(F)cc3C)c(=O)oc12 [Compound 11] | ≤ 80 | – | > 80 | > 80 | – | –
10 | CCCCC[C@H](OC(=O)[C@H](C)n1c(=O)oc2c(OC)ccnc2c1=O)[C@@H](C)Oc1ccccc1 [Compound 13] | – | – | ≤ 80 | ≤ 80 | ≤ 80 | –
11 | COc1ccnc2c(=O)n([C@@H](C)C(=O)O[C@@H](C)C(c3cccc(F)c3)c3cccc(F)c3)c(=O)oc12 [Compound 14] | ≤ 80 | ≤ 80 | > 80 | > 80 | – | –
12 | COc1ccnc2c(=O)n([C@@H](C)C(=O)O[C@@H](C)[C@H](Oc3ccccc3)c3ccc(F)cc3Cl)c(=O)oc12 [Compound 15] | > 80 | ≤ 80 | > 80 | > 80 | – | –
13 | CCC(CC)[C@@H](Oc1ccccc1Cl)[C@H](C)OC(=O)[C@H](C)n1c(=O)oc2c(OC)ccnc2c1=O [Compound 16] | > 80 | ≤ 80 | ≤ 80 | > 80 | – | –
14 | COc1ccnc2c(=O)n([C@@H](C)C(=O)O[C@@H](C)[C@H](c3ccccc3)c3ccc(C)cc3F)c(=O)oc12 [Compound 17] | > 80 | – | > 80 | > 80 | – | –
15 | COc1ccc(C(c2ccc(OC)cc2)[C@H](C)OC(=O)[C@H](C)n2c(=O)oc3c(OC)ccnc3c2=O)cc1 [Compound 18] | > 80 | ≤ 80 | > 80 | > 80 | ≤ 80 | ≤ 80
16 | COc1ccnc2c(=O)n([C@@H](C)C(=O)O[C@@H](C)[C@@H](c3ccc(F)cc3)c3ccc(F)cc3C)c(=O)oc12 [Compound 19] | > 80 | ≤ 80 | > 80 | > 80 | ≤ 80 | > 80
17 | COc1cc(F)ccc1[C@@H](c1ccc(F)cc1)[C@H](C)OC(=O)[C@H](C)n1c(=O)oc2c(OC)ccnc2c1=O [Compound 20] | > 80 | ≤ 80 | > 80 | > 80 | – | –
18 | COc1ccnc2c(=O)n([C@@H](C)C(=O)O[C@@H](C)[C@H](Oc3ccccc3Cl)c3ccccc3)c(=O)oc12 [Compound 21] | > 80 | – | > 80 | ≤ 80 | ≤ 80 | –
19 | COc1ccnc2c(=O)n([C@@H](C)C(=O)O[C@@H](C)[C@@H](c3ccccc3)c3ccc(F)c(C)c3)c(=O)oc12 [Compound 22] | > 80 | ≤ 80 | > 80 | > 80 | ≤ 80 | ≤ 80
20 | COc1ccc(O[C@@H](C)[C@H](OC(=O)[C@H](C)n2c(=O)oc3c(OC)ccnc3c2=O)C(C)C)cc1 [Compound 23] | > 80 | > 80 | ≤ 80 | > 80 | ≤ 80 | > 80
21 | COc1ccnc2c(=O)n([C@@H](C)C(=O)O[C@@H](C)[C@H](Oc3cccc(F)c3)C(C)C)c(=O)oc12 [Compound 24] | > 80 | > 80 | ≤ 80 | > 80 | ≤ 80 | > 80
22 | COc1ccnc2c(=O)n([C@@H](C)C(=O)O[C@@H](C)[C@H](c3ccc(C)cc3)c3ccc(C)cc3F)c(=O)oc12 [Compound 25] | > 80 | ≤ 80 | > 80 | > 80 | – | ≤ 80
23 | COc1ccnc2c(=O)n([C@@H](C)C(=O)O[C@H](C)C(c3ccc(F)cc3)c3ccc(F)cc3)c(=O)oc12 [Compound 29] | – | – | – | ≤ 80 | ≤ 80 | –
24 | COc1ccnc2c(=O)n([C@H](C)C(=O)O[C@H](C)C(c3ccc(F)cc3)c3ccc(F)cc3)c(=O)oc12 [Compound 34] | – | – | – | – | ≤ 80 | ≤ 80
25 | CCC[C@H](OC(=O)[C@H](C)n1c(=O)oc2c(OC)ccnc2c1=O)[C@@H](C)Oc1ccccc1 [Compound 35] | – | – | – | ≤ 80 | ≤ 80 | –
